Assays:
[1] = system: TMD-8 subcutaneous xenograft; assay: TMD-8 (DLBCL) cell line-derived subcutaneous xenograft, tumor growth; format: in vivo
Description: See FIG. 3 (Data represented as mean±SEM. N=8, ***P<0.001, ****P<0.0001 by Mann-Whitney U test). […]
(§1) See FIG. 9 (Data represented as mean±SEM. N=8, *P<0.05, **P<0.001, ***P<0.001 by Mann-Whitney U test).

[2] = system: SUDHL4 subcutaneous xenograft; assay: SUDHL4 subcutaneous xenograft, tumor growth; format: in vivo; conditions: Formula (I) 30 mg/kg intravenously QW, BID q2h
Description: (§2) See FIG. 3 (Data represented as mean±SEM. N=8, ***P<0.001, ****P<0.0001 by Mann-Whitney U test).

[3] = system: Karpas-422 subcutaneous xenograft; assay: Karpas-422 subcutaneous xenograft, tumor growth; format: in vivo; conditions: Formula (I) 30 mg/kg intravenously QW, BID q2h
Description: as §2

[4] = system: LY2264 (DLBCL) patient-derived xenografts (PDX); assay: LY2264 (DLBCL) patient-derived xenograft, tumor growth; format: in vivo
Description: See FIG. 6 (Data represented as mean±SEM. N=8, *P<0.05, **P<0.001, ***P<0.001 by Mann-Whitney U test).

U-2932 CDX = assay: U-2932 (DLBCL) CDX, tumor growth; format: in vivo
Description: as §1

[5] = system: Mino CDX model of Ibrutinib resistant MCL; assay: Mino CDX model of Ibrutinib resistant MCL, tumor growth; format: in vivo; conditions: Formula (I) i.v. 15 mg/kg, QW BID q2h
Description: Anti-tumor activity remains similar to the parental Mino model. Ibrutinib-resistance was induced through repeat in vivo passage and treatment with Ibrutinib. See FIG. 15 (Data represented as mean±SEM. N=7, *P<0.05, ****P<0.0001 by Mann-Whitney U test).

[6] = system: DLBCL (SUDHL4, OCI-Ly-10, and TMD-8) and CLL (HG-3, JVM-3, and MEC-1) cell lines; assay: Caspase 3/7-Glo assay in DLBCL and CLL cell lines; format: cell-based; conditions: 6 h treatment
[7] = system: PBMCs derived from patients with untreated or relapsed/refractory (R/R) CLL; assay: Caspase-Glo 3/7 activity assay in CLL patient PBMCs; format: cell-based; conditions: 6 h treatment; ex vivo patient PBMCs
[8] = system: Ibrutinib-sensitive and Ibrutinib-resistant MCL cell lines; assay: CTG assay in MCL cell lines; format: cell-based; conditions: in vitro

Compound `Cc1cnc(NC(=O)[C@H]2CCC[C@@H](NC(=O)CC#N)C2)cc1-c1cc(F)c2ncn(C(C)C)c2c1` [Formula (I)] has a tumor growth inhibition ([1]; Example 1, FIG. 3, Formula (I) 7.5 mg/kg intravenously QW, BID q2h) of 49%, a tumor growth inhibition ([1]; Example 1, FIG. 3, Formula (I) 15 mg/kg intravenously QW, BID q2h) of 62% and a tumor growth inhibition ([1]; Example 1, FIG. 3, Formula (I) 30 mg/kg intravenously QW, BID q2h) of 83%. The tumor growth inhibition ([1]; Example 2, FIG. 5, Formula (I) monotherapy 7.5 mg/kg i.v., BID q2h QW) was 46%, the tumor growth inhibition ([1]; Example 3, FIG. 9, Formula (I) monotherapy 7.5 mg/kg i.v. QW BID q2h) was 49% and the tumor growth inhibition [2] was 125%. The tumor growth inhibition [3] was 108%, the tumor growth inhibition ([4]; Formula (I) alone, 30 mg/kg i.v. QW, BID q2h) was 40% and the tumor growth inhibition (U-2932 CDX; Formula (I) monotherapy 7.5 mg/kg i.v. QW BID q2h) was 37%. The “tumor growth inhibition (in words)” value [5] was “significant tumor growth inhibition”, the “induction of apoptosis (caspase 3/7)” value [6] was “induction of apoptosis” and the “induction of apoptosis (caspase 3/7)” value [7] was “induction of apoptosis”. For the same compound, the “activity in CTG assay (in words)” value [8] was “shows activity”.
For `C=CC(=O)N1CCC([C@@H]2CCNc3c(C(N)=O)c(-c4ccc(Oc5ccccc5)cc4)nn32)CC1` [Zanubrutinib, reference compound], the tumor growth inhibition ([1]; Example 2, FIG. 5, Zanubrutinib 5 mg/kg, BID orally) was 44% and the tumor growth inhibition ([4]; Zanubrutinib alone, 25 mg/kg QD orally) was 64%.
Compound `CC1(C)CCC(CN2CCN(c3ccc(C(=O)NS(=O)(=O)c4ccc(NCC5CCOCC5)c([N+](=O)[O-])c4)c(Oc4cnc5[nH]ccc5c4)c3)CC2)=C(c2ccc(Cl)cc2)C1` [Venetoclax, reference compound] has a tumor growth inhibition (U-2932 CDX; Venetoclax 50 mg/kg QD orally) of 37%.

Source: patent US20250281473A1, “CDK Inhibitors And Their Use As Pharmaceuticals” (PRELUDE THERAPEUTICS INCORPORATED, priority 2024, published 2025)
